Article PMC3605511, “Tumor P-Glycoprotein Correlates with Efficacy of PF-3758309 in in vitro and in vivo Models of Colorectal Cancer” (Frontiers in Pharmacology, 2013)

Experiments:
HT29 = experiment: Cell proliferation assay, HT29; type: cell-based; settings: Homo sapiens, HT-29; HT29, 72 h, SRB assay
Description: (§1) Cytotoxic/proliferation effects were determined using the sulforhodamine B (SRB) assay (Skehan et al., [1990]) or by resazurin. Briefly, cells in logarithmic growth phase were transferred to 96 well flat bottom plates with lids. One-hundred microliter cell suspensions containing 1500–5000 viable cells were plated into each well and incubated overnight prior to exposure with increasing concentrations of PF-309 for 3–5 days, dependent upon cell type. Media was removed and cells were fixed with cold 10% trichloroacetic acid for 30 min at 4°C. Cells were then washed with water and stained with 0.4% SRB (Fisher Sci., Pittsburgh, PA, USA) for 30 min at room temperature, washed again with 1% acetic acid, followed by stain solubilization with 10 mM tris at room temperature. The plate was then read on a plate reader (Biotek Synergy 2, Winooski, VT, USA) set at an absorbance wavelength of 565 nm. Cell proliferation curves were derived from the raw absorbance (OD) data.
(§2) Since PF-309 appeared to be a strong P-gp and BCRP substrates, we sought to evaluate if the transporters influenced sensitivity in vitro. We evaluated the sensitivity of CRC cell lines to PF-309 treatment in a panel of 27 lines. Cells were exposed to PF-309 at a range of concentrations for 72 h and cell content measured by SRB assay (see Pitts et al., [2013]). […]

[1] = test system: CRC, breast, and non-small cell lung cancer cell lines; experiment: Proliferation by resazurin, expanded panel of 71 cell lines; type: cell-based; settings: Homo sapiens, printed over a group of bars, cell lines covered not named
Description: as §1, §2

[2] = test system: Colo201 cell line xenograft; experiment: CRC cell line xenograft efficacy, Colo201; type: in vivo, mice; settings: 25 mg/kg orally twice daily, 14–28 days, end of study tumor volumes
Description: For cell line xenografts, CRC cells were harvested in exponential phase growth and resuspended in a 1:1 mixture of serum-free RPMI 1640 and Matrigel (BD Biosciences). Five to ten million cells per mouse were injected subcutaneously into the flank using a 23-gauge needle. Mice were monitored daily for signs of toxicity and were weighed twice weekly. Tumor size was evaluated twice per week by caliper measurements using the following formula: tumor volume = length × width^2 × 0.52. When tumors reached 200–300 mm^3 mice were randomized into two groups with at least 10 tumors per group. Mice were then treated for 14–28 days (until control tumor volume reach ∼1500 mm^3) with either vehicle control (0.5% methylcellulose), or PF-3758309 (25 mg/kg) twice daily by oral gavage.
Human tumor xenograft models were used to evaluate the efficacy of PF-309 in vivo. Eleven different CRC cell line tumor xenografts were treated with 25 mg/kg PF-309 twice daily by oral gavage for 14–28 days (until control tumor volumes reached ∼1500 mm^3). Tumor volumes were measured throughout the study and the % growth inhibition was calculated from the average end of study tumor volumes by:
% Growth Inhibition= (average control volume−average treated volume)/average control volume×100%

CUCRC047 CRC PDTX model = experiment: Patient derived tumor xenograft efficacy, CUCRC047; type: in vivo, mice; settings: 25 mg/kg orally twice daily, 22–56 days, end of study tumor volumes
Description: For patient tumor xenografts, surgical specimens of patients undergoing either removal of a primary or metastatic tumor at the University of Colorado Hospital are implanted subcutaneously into five mice for each patient with a 10-G trochar. After a subsequent growth and passage in mice, tumors are excised, and expanded into cohorts for treatment (n = 6–15 per group). Mice were treated with PF-309 or vehicle (0.5% methylcellulose) for 22–56 days (until control tumor volume reach ∼1500 mm^3) twice daily (BID) by oral gavage (PO). Monitoring of mice and measurements of tumors were conducted as described above. % Growth Inhibition= (average control volume−average treated volume)/average control volume×100% In addition to the cell line xenografts, we also treated 12 different patient derived tumor xenograft (PDTX) CRC models with PF-309 (Figure 6). We were unable to assess how ABCB1 gene expression correlated with efficacy in these models. The PDTX models are propagated in vivo, are not immortalized, and are not grown in in vitro culture. […] Tumor and plasma sample pairs were collected from animals at the end of study for eight tumor models (three cell line xenografts and five PDTX models) and concentrations of PF-309 were measured. […]

SMILES: Cc1nc(Nc2n[nH]c3c2CN(C(=O)N[C@H](CN(C)C)c2ccccc2)C3(C)C)c2sccc2n1 [PF-309]
- IC50 (HT29): > 1000 nM
- IC50 [1]: > 100 nM
- % Growth inhibition [2]: 45%
- % Growth inhibition (CUCRC047 CRC PDTX model): −24%
